# Assay results taken from ChEMBL document CHEMBL5335870, “Discovery of Hepatitis B Virus Surface Antigen Suppressor GS-8873” (ACS Med Chem Lett, 2024).
# Calls of active or inactive are those of the source. The rule behind the calls is not given here.
# Assays:
# [1] = tested on: MT4; assay: Cytotoxicity against human MT4 cells assessed as inhibition of cell viability measured upto 17 uM incubated for 5 days; type: toxicity, cell-based; settings: mt4, 120 h, time 5 day
# [2] = tested on: MG-63; assay: Cytotoxicity against human MG-63 cells assessed as inhibition of cell viability measured upto 17 uM incubated for 5 days; type: toxicity, cell-based; settings: mg-63, 120 h, time 5 day
# [3] = tested on: Hepatitis B virus; assay: Antiviral activity against HBV genome D integrated human HepAD38 cells assessed as reduction in extracellular HBsAg media replaced for every 2 to 3 days incubated for 7 days […]; type: functional, organism-based; settings: time 7.0 day
# [4] = tested on: Hepatitis B virus; assay: Antiviral activity against genotype B HBV infected in primary human hepatocyte assessed as reduction in […] replaced for every 2 to 3 days incubated for 12 days by multiplex chemiluminescent MSD assay; type: functional, organism-based; settings: time 12.0 day
# [5] = Oral bioavailability in dog at 5 mg/kg; type: ADME, organism-based, Canis lupus familiaris; settings: in vivo
# [6] = tested on: Hepatitis B virus; assay: Antiviral activity against genotype A HBV infected in primary human hepatocyte assessed as reduction in […] replaced for every 2 to 3 days incubated for 12 days by multiplex chemiluminescent MSD assay; type: functional, organism-based; settings: time 12.0 day
# [7] = Oral bioavailability in cynomolgus monkey at 5 mg/kg; type: ADME, organism-based, Macaca fascicularis; settings: in vivo
# [8] = tested on: Woodchuck hepatitis virus; assay: Antiviral activity against WHV-infected Woodchucks assessed as reduction in WHV sAg level in plasma at 15 mg/kg, po qd for 12 weeks; type: functional
# [9] = tested on: SK-N-AS; assay: Cytotoxicity against human SK-N-AS cells assessed as inhibition of cell viability measured upto 17 uM incubated for 5 days; type: toxicity, cell-based; settings: 120 h, time 5 day
# [10] = tested on: A-375; assay: Cytotoxicity against human A-375 cells assessed as inhibition of cell viability measured upto 17 uM incubated for 5 days; type: toxicity, cell-based; settings: a-375, 120 h, time 5 day
# [11] = tested on: PBMC; assay: Cytotoxicity against human PBMC cells assessed as inhibition of cell viability measured upto 17 uM incubated for 5 days; type: toxicity, cell-based; settings: 120 h, time 5 day
# [12] = tested on: OVCAR-3; assay: Cytotoxicity against human OVCAR-3 cells assessed as inhibition of cell viability measured upto 17 uM incubated for 5 days; type: toxicity, cell-based; settings: ovcar-3, 120 h, time 5 day
# [13] = tested on: AN3-CA; assay: Cytotoxicity against human AN3-CA cells assessed as inhibition of cell viability measured upto 17 uM incubated for 5 days; type: toxicity, cell-based; settings: 120 h, time 5 day
# [14] = tested on: Hepatitis B virus; assay: Antiviral activity against HBV infected in primary human hepatocyte assessed as reduction in intracellular HBsAg protein at 250 nM media replaced for every 2 to 3 days incubated for 14 days by immunofluorescence microscopy; type: functional, organism-based; settings: time 14.0 day
# [15] = In vivo clearance in rat; type: ADME, organism-based
# [16] = tested on: Hepatitis B virus; assay: Antiviral activity against genotype D (AD38-derived) HBV infected in primary human hepatocyte assessed as inhibition of extracellular HBsAg media replaced for every 2 to 3 days incubated for 12 days by multiplex chemiluminescent MSD assay; type: functional; settings: time 12 day
# [17] = tested on: Huh-7; assay: Cytotoxicity against human Huh-7 cells assessed as inhibition of cell viability measured upto 17 uM incubated for 5 days; type: toxicity, cell-based; settings: huh-7, 120 h, time 5 day
# [18] = tested on: MRC5; assay: Cytotoxicity against human MRC5 cells assessed as inhibition of cell viability measured upto 17 uM incubated for 5 days; type: toxicity, cell-based; settings: mrc5, 120 h, time 5 day
# [19] = tested on: A 172; assay: Cytotoxicity against human A-172 cells assessed as inhibition of cell viability measured upto 17 uM incubated for 5 days; type: toxicity, cell-based; settings: a 172, 120 h, time 5 day
# [20] = tested on: 769-P; assay: Cytotoxicity against human 769-P cells assessed as inhibition of cell viability measured upto 17 uM incubated for 5 days; type: toxicity, cell-based; settings: 120 h, time 5 day
# [21] = Oral bioavailability in rat at 5 mg/kg; type: ADME, organism-based; settings: in vivo
# [22] = tested on: Primary hepatocyte; assay: Effect on cccDNA level in HBV infected primary human hepatocyte at 0.25 uM media replaced for every 2 to 3 days incubated for 12 days in presence of Tenofovir by Southern blot analysis; type: functional, cell-based; settings: Hepatitis B virus, time 12.0 day
# [23] = Hepatic extraction in cynomolgus monkey; type: ADME, Macaca fascicularis; settings: read-out: ERH
# [24] = Lipophilicity, logD of the compound; type: physicochemical; settings: octanol/water
# [25] = tested on: HepG2; assay: Cytotoxicity against human HepG2 cells assessed as inhibition of cell viability measured upto 17 uM incubated for 5 days; type: toxicity, cell-based; settings: hepg2, 120 h, time 5 day
# [26] = tested on: Hepatitis B virus; assay: Antiviral activity against HBV genome D integrated human HepG2.2.15 cells assessed as reduction in extracellular HBsAg media replaced for every 2 to 3 days incubated for 7 days; type: functional, organism-based; settings: time 7.0 day
# [27] = tested on: Hepatitis B virus; assay: In vivo antiviral activity against HBV in model of HBV 1.3.32 mouse harboring integrated greater-than-genome-length HBV transgene assessed as reduction in plasma HBsAg level at 50 mg/kg, sc qd treated for 4 weeks (reference value: 1.1 log10 ng/ml); type: functional
# [28] = tested on: Hepatitis B virus; assay: Antiviral activity against genotype D HBV infected in sodium taurocholate co-transporting polypeptide receptor-expressing stable HepG2 cell line assessed as suppression of HBsAg level incubated for 5 days by multiplex chemiluminescent MSD assay; type: functional, organism-based; settings: HepG2, 120 h
# [29] = Hepatic extraction in rat; type: ADME; settings: read-out: ERH
# [30] = tested on: A204; assay: Cytotoxicity against human A204 cells assessed as inhibition of cell viability measured upto 17 uM incubated for 5 days; type: toxicity, cell-based; settings: a204, 120 h, time 5 day
# [31] = tested on: Primary hepatocyte; assay: Effect on cccDNA level in HBV infected primary human hepatocyte at 0.25 uM media replaced for every 2 to 3 days incubated for 12 days by Southern blot analysis; type: functional, cell-based; settings: Hepatitis B virus, time 12.0 day
# [32] = tested on: ASPC1; assay: Cytotoxicity against human AsPC1 cells assessed as inhibition of cell viability measured upto 17 uM incubated for 5 days; type: toxicity, cell-based; settings: aspc1, 120 h, time 5 day
# [33] = tested on: Hepatitis B virus; assay: In vivo antiviral activity against HBV in model of HBV 1.3.32 mouse harboring integrated greater-than-genome-length HBV transgene assessed as plasma HBsAg level measured in off-treatment recovery phase at 50 mg/kg, sc qd treated for 4 weeks (reference value: 1.1 log10 ng/ml); type: functional
# [34] = tested on: Hepatitis B virus; assay: Antiviral activity against genotype E HBV infected in primary human hepatocyte assessed as reduction in […] replaced for every 2 to 3 days incubated for 12 days by multiplex chemiluminescent MSD assay; type: functional, organism-based; settings: time 12.0 day
# [35] = In vivo clearance in cynomolgus monkey; type: ADME, organism-based, Macaca fascicularis
# [36] = tested on: Hepatitis B virus; assay: Antiviral activity against genotype C HBV infected in primary human hepatocyte assessed as reduction in […] replaced for every 2 to 3 days incubated for 12 days by multiplex chemiluminescent MSD assay; type: functional, organism-based; settings: time 12.0 day
# [37] = In vivo clearance in dog; type: ADME, organism-based, Canis lupus familiaris
# [38] = Cytotoxicity against rat NRVM cells assessed as inhibition of cell viability measured upto 17 uM incubated for 5 days; type: toxicity, cell-based; settings: 120 h, time 5 day
# [39] = tested on: A498; assay: Cytotoxicity against human A498 cells assessed as inhibition of cell viability measured upto 17 uM incubated for 5 days; type: toxicity, cell-based; settings: a498, 120 h, time 5 day
# [40] = Clearance in Sprague-Dawley rat at […], iv measured after 24 hrs by LC/MS/MS method; type: ADME, organism-based; settings: in vivo
# [41] = tested on: Hepatocyte; assay: Cytotoxicity against primary human hepatocyte assessed as change in cell morphology; type: toxicity, cell-based; settings: hepatocytes
# [42] = tested on: J82; assay: Cytotoxicity against human J82 cells assessed as inhibition of cell viability measured upto 17 uM incubated for 5 days; type: toxicity, cell-based; settings: j82, 120 h, time 5 day
# [43] = Oral bioavailability in Sprague-Dawley rat after 24 hrs by LC/MS/MS method; type: ADME, organism-based; settings: in vivo
# [44] = tested on: PC-3; assay: Cytotoxicity against human PC-3 cells assessed as inhibition of cell viability measured upto 17 uM incubated for 5 days; type: toxicity, cell-based; settings: pc-3, 120 h, time 5 day
# [45] = Hepatic extraction in dog; type: ADME, Canis lupus familiaris; settings: read-out: ERH
smiles,measurement,setting,value
COCCCOc1cc2c(cc1Cl)-c1cc(=O)c(C(=O)O)cn1N(C(C)(C)C)C2,Activity,[1],Non-Toxic
same,Activity,[2],Non-Toxic
same,Activity,[3],Active
same,Activity,[4],Active
same,bioavailability,[5],> 100%
same,Activity,[6],Active
same,bioavailability,[7],48%
same,Activity,[8],1.4 log10ng/ml
same,Activity,[9],Non-Toxic
same,Activity,[10],Non-Toxic
same,Activity,[11],Non-Toxic
same,Activity,[12],Non-Toxic
same,Activity,[13],Non-Toxic
same,Activity,[14],Active
same,clearance,[15],3 mL/min/kg
same,inhibition (INH),[16],85%
same,Activity,[17],Non-Toxic
same,Activity,[18],Non-Toxic
same,Activity,[19],Non-Toxic
same,Activity,[20],Non-Toxic
same,bioavailability,[21],> 100%
same,Activity,[22],inactive
same,hepatic extraction ratio,[23],0.02
same,logD,[24],2
same,Activity,[25],Non-Toxic
same,Activity,[26],Active
same,Activity,[27],2.2 log10ng/ml
same,EC50,[28],5.8 nM
same,hepatic extraction ratio,[29],0.043
same,Activity,[30],Non-Toxic
same,Activity,[31],inactive
same,Activity,[32],Non-Toxic
same,Activity,[33],0.7 log10ng/ml
same,Activity,[34],Active
same,clearance,[35],0.533 mL/min/kg
same,Activity,[36],Active
same,clearance,[37],2.17 mL/min/kg
same,Activity,[38],Non-Toxic
same,Activity,[39],Non-Toxic
same,clearance,[40],19.7 mL/min/kg
same,Activity,[41],Non-Toxic
same,Activity,[42],Non-Toxic
same,bioavailability,[43],109%
same,Activity,[44],Non-Toxic
same,hepatic extraction ratio,[45],0.072
